Source: patent publication US12404239B2, “Modulators of BCL6 as ligand directed degraders” (Celgene Corporation, priority 2022, dated 2025)

Molecular target: T1, BCL6 (Homo sapiens, UniProt P41182)
T1 construct: HiBiT-tag knocked into endogenous BCL6 locus using CRISPR; endogenous in cells; host or cells: DHL-4_BCL6_HiBiT cells (CRISPR knock-in)
Test: BCL6_HiBiT degradation assay (2 h)
Assay type: cell-based
Settings: DHL-4_BCL6_HiBiT cells, read-out: YCon (% remaining maximal effect)
Description: A DHL-4 cell line with HiBiT-tag knocked into endogenous BCL6 locus using CRISPR was generated. The DHL-4_BCL6_HiBiT cells were dispensed into 384-well plates (Corning no. 3570) that were pre-spotted with compounds. Compounds were dispensed by an acoustic dispenser (ATS acoustic transfer system from EDC Biosystems) into a 384-well plate in a 10-point dose response curve using 3-fold dilutions starting at 1-10 μM and going down to […]. 25 μL of media (RPMI-1640+10% heat inactivated FBS+1×Pen/Strep) containing 2500 of DHL-4 was dispensed per well. Assay plates were incubated at 37° C. with 5% CO2 for 2 hours. After incubation, 25 μL of the Nano-Glo HiBiT lytic detection working solution (Promega, catalogue no. N3040, Madison, WI) was added to each well and incubated at room temperature for 15-30 min, protected from light. After 30 min, luminescence was read on an Envision or PHERAstar luminescence reader. To determine the EC50 value (the half-maximum effective concentration) and the level of the gradation (Yconstant) of a BCL6 degrader, luminescent signal normalized by DMSO control (Y) and compound concentration (x) was fitted using a four-parameter dose-response model (Y=(A+((B−A)/1+((C/x)^D) in Dotmatics. Fitted value C is the degradation EC50 and the minimum value A is the Y constant.
The degradation of BCL6 at 2 h in DHL-4 results are shown in Table 5, where EC50 is the half maximal effect and Ycon is the % remaining maximal effect.

| SMILES | Percent BCL6 remaining at maximal degradation (Ycon) [%] |
| --- | --- |
| CN1C(=O)Cc2cc(Nc3nc(N(C)C4CCN(c5ccc6c(C7CCC(=O)NC7=O)nn(C)c6c5)C5(CCC5)C4)ncc3Cl)ccc21 (stereo not drawn) [Example 2, 3-(6-(8-((5-chloro-4-((1-methyl-2-oxoindolin-5-yl)amino)pyrimidin-2-yl)(methyl)amino)-5-azaspiro[3.5]nonan-5-yl)-1-methyl-1H-indazol-3-yl)piperidine-2,6-dione] | < 20 |
| C[C@@H]1CN(c2ncc(Cl)c(Nc3ccc4c(c3)CC(=O)N4C)n2)CC[C@H]1Nc1ccc2c([C@@H]3CCC(=O)NC3=O)nn(C)c2c1 (single isomer, unassigned) [Example 72] | < 20 |
| CN1C(=O)Cc2cc(Nc3nc(N4CC[C@H](Nc5ccc6c(C7CCC(=O)NC7=O)nn(C)c6c5)[C@@H](F)C4)ncc3Cl)ccc21 (stereo partly drawn) [Example 42, 3-(6-(((3S,4S)-1-(5-chloro-4-((1-methyl-2-oxoindolin-5-yl)amino)pyrimidin-2-yl)-3-fluoropiperidin-4-yl)amino)-1-methyl-1H-indazol-3-yl)piperidine-2,6-dione] | 20 to 60 |
| Cn1nc(C2CCC(=O)NC2=O)c2ccc(NC3CCN(c4ncc(Cl)c(Nc5ccc6c(c5)CC(=O)N6)n4)CC3)cc21 (stereo not drawn) [Example 63, 3-(6-((1-(5-chloro-4-((2-oxoindolin-5-yl)amino)pyrimidin-2-yl)piperidin-4-yl)amino)-1-methyl-1H-indazol-3-yl)piperidine-2,6-dione] | > 60 |
| CN1C(=O)Cc2cc(Nc3nc(N4CCC(Nc5ccc6c(C7CCC(=O)NC7=O)nn(C)c6c5)CC4)ncc3C#N)ccc21 (stereo not drawn) [Example 36, 2-(4-((3-(2,6-dioxopiperidin-3-yl)-1-methyl-1H-indazol-6-yl)amino)piperidin-1-yl)-4-((1-methyl-2-oxoindolin-5-yl)amino)pyrimidine-5-carbonitrile] | > 60 |
| C[C@@H]1CN(c2ncc(Cl)c(Nc3ccc4c(c3)CC(=O)N4C)n2)CC[C@H]1N(C)c1ccc2c(C3CCC(=O)NC3=O)nn(C)c2c1 (stereo partly drawn) [Example 73, 3-(6-(((3R,4R)-1-(5-chloro-4-((1-methyl-2-oxoindolin-5-yl)amino)pyrimidin-2-yl)-3-methylpiperidin-4-yl)(methyl)amino)-1-methyl-1H-indazol-3-yl)piperidine-2,6-dione] | < 20 |
| CN1C(=O)Cc2cc(Nc3nc(N(C)C4CCN(c5ccc6c(C7CCC(=O)NC7=O)nn(C)c6c5)CC4)ncc3Cl)ccc21 (stereo not drawn) [Example 6, 3-(6-(4-((5-Chloro-4-((1-methyl-2-oxoindolin-5-yl)amino)pyrimidin-2-yl)(methyl)amino)piperidin-1-yl)-1-methyl-1H-indazol-3-yl)piperidine-2,6-dione] | > 60 |
| C[C@H]1C[C@@H](N(C)c2ncc(Cl)c(Nc3ccc4c(c3)CC(=O)N4C)n2)CCN1c1ccc2c(C3CCC(=O)NC3=O)nn(C)c2c1 (stereo partly drawn) [Example 20, 3-(6-((2S,4S)-4-((5-chloro-4-((1-methyl-2-oxoindolin-5-yl)amino)pyrimidin-2-yl)(methyl)amino)-2-methylpiperidin-1-yl)-1-methyl-1H-indazol-3-yl)piperidine-2,6-dione] | 20 to 60 |
| C[C@@H]1CN(c2ncc(C#N)c(Nc3cc4c(cc3F)N(C)C(=O)C4)n2)CC[C@H]1Nc1ccc2c(C3CCC(=O)NC3=O)nn(C)c2c1 (stereo partly drawn) [Example 117, 2-((3R,4R)-4-((3-(2,6-dioxopiperidin-3-yl)-1-methyl-1H-indazol-6-yl)amino)-3-methylpiperidin-1-yl)-4-((6-fluoro-1-methyl-2-oxoindolin-5-yl)amino)pyrimidine-5-carbonitrile] | < 20 |
| C[C@H]1C[C@H](Nc2ccc3c(C4CCC(=O)NC4=O)nn(C)c3c2)CCN1c1ncc(Cl)c(Nc2ccc3c(c2)CC(=O)N3C)n1 (stereo partly drawn) [Example 81, 3-(6-(((2S,4R)-1-(5-chloro-4-((1-methyl-2-oxoindolin-5-yl)amino)pyrimidin-2-yl)-2-methylpiperidin-4-yl)amino)-1-methyl-1H-indazol-3-yl)piperidine-2,6-dione] | < 20 |
| C[C@@H]1C[C@@H](Nc2ccc3c(C4CCC(=O)NC4=O)nn(C)c3c2)CCN1c1ncc(Cl)c(Nc2ccc3c(c2)CC(=O)N3C)n1 (stereo partly drawn) [Example 23, 3-(6-(((2R,4S)-1-(5-chloro-4-((1-methyl-2-oxoindolin-5-yl)amino)pyrimidin-2-yl)-2-methylpiperidin-4-yl)amino)-1-methyl-1H-indazol-3-yl)piperidine-2,6-dione] | > 60 |
| C[C@@H]1CN(c2ncc(Cl)c(Nc3ccc4c(c3)CC(=O)N4CCC(C)(C)F)n2)CC[C@H]1Nc1ccc2c(C3CCC(=O)NC3=O)nn(C)c2c1 (stereo partly drawn) [Example 107, 3-(6-(((3R,4R)-1-(5-chloro-4-((1-(3-fluoro-3-methylbutyl)-2-oxoindolin-5-yl)amino)pyrimidin-2-yl)-3-methylpiperidin-4-yl)amino)-1-methyl-1H-indazol-3-yl)piperidine-2,6-dione] | < 20 |
| C[C@@H]1CN(c2ncc(Cl)c(Nc3ccc4c(c3)CC(=O)N4CCC(C)(C)F)n2)CC[C@H]1Nc1ccc2c([C@H]3CCC(=O)NC3=O)nn(C)c2c1 (single isomer, unassigned) [Example 108] | < 20 |
| CN1C(=O)Cc2cc(Nc3nc(N(C)C4CCN(c5cc6c(cn5)c(C5CCC(=O)NC5=O)nn6C)CC4)ncc3Cl)ccc21 (stereo not drawn) [Example 60, 3-(6-(4-((5-chloro-4-((1-methyl-2-oxoindolin-5-yl)amino)pyrimidin-2-yl)(methyl)amino)piperidin-1-yl)-1-methyl-1H-pyrazolo[4,3-c]pyridin-3-yl)piperidine-2,6-dione] | > 60 |
| CC1CCN(c2ncc(Cl)c(Nc3ccc4c(c3)CC(=O)N4C)n2)CCC1Nc1ccc2c(C3CCC(=O)NC3=O)nn(C)c2c1 (stereo not drawn) [Example 47, 3-(6-((1-(5-chloro-4-((1-methyl-2-oxoindolin-5-yl)amino)pyrimidin-2-yl)-5-methylazepan-4-yl)amino)-1-methyl-1H-indazol-3-yl)piperidine-2,6-dione] | > 60 |
| C[C@H]1CN(c2ncc(Cl)c(Nc3ccc4c(c3)CC(=O)N4C)n2)CC[C@H]1Nc1ccc2c(C3CCC(=O)NC3=O)nn(C)c2c1 (stereo partly drawn) [Example 13, 3-(6-(((3S,4R)-1-(5-chloro-4-((1-methyl-2-oxoindolin-5-yl)amino)pyrimidin-2-yl)-3-methylpiperidin-4-yl)amino)-1-methyl-1H-indazol-3-yl)piperidine-2,6-dione] | > 60 |
| C[C@@H]1CN(c2ncc(Cl)c(Nc3ccc4c(c3)CC(=O)N4CC(C)(F)F)n2)CC[C@H]1Nc1ccc2c(C3CCC(=O)NC3=O)nn(C)c2c1 (stereo partly drawn) [Example 110, 3-(6-(((3R,4R)-1-(5-chloro-4-((1-(2,2-difluoropropyl)-2-oxoindolin-5-yl)amino)pyrimidin-2-yl)-3-methylpiperidin-4-yl)amino)-1-methyl-1H-indazol-3-yl)piperidine-2,6-dione] | < 20 |
| C[C@@H]1C[C@H](N(C)c2ccc3c(C4CCC(=O)NC4=O)nn(C)c3c2)CCN1c1ncc(Cl)c(Nc2ccc3c(c2)CC(=O)N3C)n1 (stereo partly drawn) [Example 21, 3-(6-(((2R,4R)-1-(5-chloro-4-((1-methyl-2-oxoindolin-5-yl)amino)pyrimidin-2-yl)-2-methylpiperidin-4-yl)(methyl)amino)-1-methyl-1H-indazol-3-yl)piperidine-2,6-dione] | > 60 |
